Publication PMC7532339, “A cell-based large-scale screening of natural compounds for inhibitors of SARS-CoV-2” (Signal Transduction and Targeted Therapy, 2020)
Where two headings read alike, the source gives them in different places.

Columns and labels:
SARS-CoV-2 [1] = assay: Antiviral assay (viral RNA in supernatant by qRT-PCR); assay type: cell-based, SARS-CoV-2 (WIV-04)
Vero-E6 cells = assay: Cytotoxicity assay (CCK-8); assay type: cell-based; settings: Vero-E6 cells, 48 h, CCK-8
Protocol: (§1) Vero-E6 cells were seeded in 96-well plates (1 × 10^4 cells per well) and allowed to grow for 24 h before treatment. Then, serial 2-fold dilutions of compounds were added to the cells. At 48 h, the cells were incubated with 10 μL CCK-8 reagent (cell counting kit-8, Bimake) for 1 h at 37 °C. The absorbance at 450 nm was read by a Microplate Reader (Varioskan Flash, Thermo Fisher). Cell viability was expressed as a percentage of the treated cells to the control (untreated) cells. For each compound concentration, three wells were performed in parallel, and the mean values of the cell viability were calculated.

[2] = Cytotoxicity assay (CCK-8); assay type: cell-based; settings: African green monkey
Protocol: as §1

SARS-CoV-2 [3] = assay: CPE-based HTS assay (CPE reduction quantified by CCK-8 cell viability); settings: for inhibition at 10 µM: Severe acute respiratory syndrome coronavirus 2, Vero C1008, 48 h, read-out: protection from CPE; for protection against SARS-CoV-2 infection: known inhibitors used as positive controls
SARS-CoV-2 [4] = assay: Addition of sodium and potassium assay; assay type: cell-based, SARS-CoV-2 (WIV-04)
[5] = Severe acute respiratory syndrome coronavirus 2, Vero C1008
[6] = Severe acute respiratory syndrome coronavirus 2, Vero C1008, read-out: EC50
[7] = Vero-E6 cells, 48 h, CCK-8, read-out: CC50
[8] = primary screening, compound 10 µM, Vero-E6 cells, MOI 0.01, 48 hpi

C=C1C(=O)O[C@@H]2C[C@@]3(C)CCC[C@H](C)C3=C[C@H]12 [Alantolactone]
EC50 (SARS-CoV-2 [1]; read-out: EC50): 1720 nM
CC50 (Vero-E6 cells): 36.7 µM

COC(=O)[C@@]12OC[C@]34[C@H]([C@@H](O)[C@@H]1O)[C@@]1(C)CC(=O)C(O)=C(C)[C@@H]1C[C@H]3OC(=O)[C@H](OC(=O)CC(C)C)[C@@H]24 [Bruceine A]
EC50 (SARS-CoV-2 [1]; [5]): 11 nM
CC50 at 48 h [2]: 31.4 µM

C[C@]12CC[C@H](O)C[C@H]1CC[C@@H]1[C@@H]2CC[C@]2(C)[C@@H](c3ccc(=O)oc3)CC[C@]12O [Bufalin]
inhibition at 10 µM (SARS-CoV-2 [3]): > 50%
EC50 (SARS-CoV-2 [1]; [6]): 18 nM
CC50 at 48 h [2, 7]: > 40 µM
inhibitory effect on SARS-CoV-2 with added extracellular KCl (SARS-CoV-2 [4]): suppressed by KCl
inhibitory effect on SARS-CoV-2 with added extracellular NaCl (SARS-CoV-2 [4]): enhanced by NaCl

CC(=O)O[C@H]1C[C@]2(O)[C@@H]3CC[C@@H]4C[C@@H](O)CC[C@]4(C)[C@H]3CC[C@]2(C)[C@H]1c1ccc(=O)oc1 [Bufotaline]
EC50 (SARS-CoV-2 [1]; read-out: EC50): 25.9 nM
CC50 (Vero-E6 cells): > 40 µM

CC(=O)O[C@H]1[C@H]2O[C@]23[C@@H]2CC[C@@H]4C[C@@H](O)CC[C@]4(C)[C@H]2CC[C@]3(C)[C@H]1c1ccc(=O)oc1 [Cinobufagin]
EC50 (SARS-CoV-2 [1]; [6]): 18 nM
CC50 at 48 h [2, 7]: > 40 µM

COc1cc(/C=C/C=O)ccc1O [Coniferylaldehyde]
EC50 (SARS-CoV-2 [1]; [5]): 11000 nM
CC50 at 48 h [2]: > 40 µM

C=C[C@H]1[C@H](O[C@@H]2O[C@H](CO)[C@@H](O)[C@H](O)[C@H]2O)OC=C(C(=O)OC)[C@H]1CCOC(=O)c1cc(O)c(O)c(O)c1 [Cornuside]
EC50 (SARS-CoV-2 [1]; read-out: EC50): 5260 nM
CC50 (Vero-E6 cells): > 40 µM

C[C@H]1COC2=C1C(=O)C(=O)c1c2ccc2c1CCCC2(C)C [Cryptotanshinone]
inhibition at 10 µM (SARS-CoV-2 [3]): > 50%
EC50 (SARS-CoV-2 [1]; [6]): 5020 nM
CC50 at 48 h [2, 7]: > 100 µM

C=C1CC[C@H]2C(=C)CC[C@H]3C(=C)C(=O)O[C@@H]3[C@@H]12 [Dehydrocostus lactone]
EC50 (SARS-CoV-2 [1]; [6]): 2320 nM
CC50 at 48 h [2]: 36.2 µM

C/C=C/c1cc(OC)c2c(c1)C(C)C(c1ccc(O)c(OC)c1)O2 (centres unmarked) [Dehydrodiisoeugenol]
EC50 (SARS-CoV-2 [1]; read-out: EC50): 10300 nM
CC50 (Vero-E6 cells): > 100 µM

C[C@H]1O[C@@H](O[C@H]2[C@@H](O)C[C@H](O[C@H]3[C@@H](O)C[C@H](O[C@H]4CC[C@@]5(C)[C@H](CC[C@@H]6[C@@H]5C[C@@H](O)[C@]5(C)[C@@H](C7=CC(=O)OC7)CC[C@]65O)C4)O[C@@H]3C)O[C@@H]2C)C[C@H](O)[C@@H]1O [Digoxin, reference compound]
inhibition at 10 µM (SARS-CoV-2 [3]): > 50%
EC50 (SARS-CoV-2 [1]; [6]): 154 nM
CC50 at 48 h [2, 7]: > 40 µM

C=C1C(=O)O[C@@H]2C[C@@]3(C)CCCC(=C)[C@@H]3C[C@H]12 [Isoalantolactone]
EC50 (SARS-CoV-2 [1]; [6]): 1480 nM
CC50 at 48 h [2, 7]: > 40 µM

COc1ccc(C[C@@H]2c3cc(Oc4cc(C[C@@H]5c6cc(O)c(OC)cc6CCN5C)ccc4O)c(OC)cc3CCN2C)cc1 [Isoliensinine]
EC50 (SARS-CoV-2 [1]; [6]): 1620 nM
CC50 at 48 h [2]: 40 µM

COc1cc2c(cc1OC)[C@@H](Cc1ccc(O)c(Oc3cc4c(cc3OC)CCN(C)[C@@H]4Cc3ccc(O)cc3)c1)N(C)CC2 [Liensinine]
EC50 (SARS-CoV-2 [1]; read-out: EC50): 2540 nM
CC50 (Vero-E6 cells): 25.4 µM

CC1(C)CC[C@]2(C(=O)O)CC[C@]3(C)C(=CC[C@@H]4[C@@]5(C)CC[C@H](O[C@@H]6O[C@H](C(=O)O)[C@@H](O)[C@H](O[C@@H]7OC[C@@H](O)[C@H](O)[C@H]7O)[C@H]6O)C(C)(C)[C@@H]5CC[C@]43C)[C@@H]2C1 [Momordinic]
EC50 (SARS-CoV-2 [1]; read-out: EC50): 3530 nM
CC50 (Vero-E6 cells): > 40 µM

C=C1C(=O)[C@]23[C@H](O)[C@H]1CC[C@H]2[C@@]12CO[C@]3(O)[C@@H](O)[C@@H]1C(C)(C)CC[C@@H]2O [Oridonin]
EC50 (SARS-CoV-2 [1]; [6]): 1460 nM
CC50 at 48 h [2]: > 40 µM

CO[C@H]1C[C@H](O[C@H]2CC[C@]3(C)[C@H]4CC[C@]5(C)[C@@H](C6=CC(=O)OC6)CC[C@]5(O)[C@@H]4CC[C@]3(O)C2)O[C@H](C)[C@H]1O[C@@H]1O[C@H](CO)[C@@H](O)[C@H](O)[C@H]1O [Periplocoside]
EC50 (SARS-CoV-2 [1]; read-out: EC50): 65.7 nM
CC50 (Vero-E6 cells): > 40 µM

C=C(C)[C@@H]1CC[C@]2(C)[C@H](CC=C3[C@@H]4[C@@H](C)[C@H](C)CC[C@]4(C)CC[C@]32C)[C@@]1(C)CCC(=O)O [Roburicacid]
EC50 (SARS-CoV-2 [1]; read-out: EC50): 5270 nM
CC50 (Vero-E6 cells): > 40 µM

COc1ccc(C(=O)O[C@H]2CC[C@@]3(C)[C@@H]4CC[C@H]5[C@]6(O)C[C@H](O)[C@@]7(O)[C@@H](CN8C[C@@H](C)CC[C@H]8[C@@]7(C)O)[C@]6(O)C[C@@]53O[C@]24O)cc1OC [Veratridine]
EC50 (SARS-CoV-2 [1]; [6]): 2380 nM
CC50 at 48 h [2, 7]: > 100 µM

CC(C)=CCc1cc2c(cc1O)O[C@H](c1ccc(O)cc1)CC2=O [bavachin]
inhibition at 10 µM (SARS-CoV-2 [3]; [8]): > 50%

COc1ccc2cc1Oc1ccc(cc1)C[C@H]1c3c(cc4c(c3Oc3cc5c(cc3OC)CCN(C)[C@@H]5C2)OCO4)CCN1C [cepharanthine]
inhibition at 10 µM (SARS-CoV-2 [3]): > 50%

CCN(CC)CCCC(C)Nc1ccnc2cc(Cl)ccc12 (centres unmarked) [chloroquine, reference compound]
EC50 (SARS-CoV-2 [3]; Severe acute respiratory syndrome coronavirus 2, Vero C1008, Vero-E6 cells, MOI 0.01, 48 hpi, CCK-8, read-out: EC50 (inhibition of CPE)): 2650 nM
protection against SARS-CoV-2 infection (SARS-CoV-2 [3]; Vero-E6 cells, MOI 0.01, 48 h): provided protection
EC50 (SARS-CoV-2 [1]; Severe acute respiratory syndrome coronavirus 2, Vero C1008, 48 h, read-out: EC50 determined by viral RNA copies): 1780 nM

COc1ccc2cc1Oc1ccc(cc1)C[C@H]1c3cc(c(OC)cc3CCN1C)Oc1c(O)c(OC)cc3c1[C@H](C2)N(C)CC3 [fangchinoline]
inhibition at 10 µM (SARS-CoV-2 [3]): > 50%

CC(C)=CCc1c(O)ccc(C(=O)/C=C/c2ccc(O)cc2)c1O [isobavachalcone]
inhibition at 10 µM (SARS-CoV-2 [3]; [8]): > 50%

O[C@H]1[C@H]2c3cc4c(cc3CN3CCC(=C[C@@H]1O)[C@H]23)OCO4 [lycorine]
inhibition at 10 µM (SARS-CoV-2 [3]): > 50%

CC(C)=CCc1cc2c(cc1O)oc(=O)c1c3ccc(O)cc3oc21 [psoralidin]
protection from CPE (SARS-CoV-2 [3]): > 50%

CCC(CC)COC(=O)[C@H](C)N[P@](=O)(OC[C@H]1O[C@@](C#N)(c2ccc3c(N)ncnn23)[C@H](O)[C@@H]1O)Oc1ccccc1 [remdesivir, reference compound]
protection against SARS-CoV-2 infection (SARS-CoV-2 [3]; Vero-E6 cells, MOI 0.01, 48 h): provided protection

COC(=O)[C@H]1[C@H]2C[C@@H]3c4[nH]c5cc(OC)ccc5c4CCN3C[C@H]2C[C@@H](OC(=O)c2cc(OC)c(OC)c(OC)c2)[C@@H]1OC [reserpine, reference compound]
inhibition at 10 µM (SARS-CoV-2 [3]; [8]): > 50%

Cc1coc2c1C(=O)C(=O)c1c-2ccc2c1CCCC2(C)C [tanshinone IIA]
inhibition at 10 µM (SARS-CoV-2 [3]; [8]): > 50%

COc1ccc2cc1Oc1ccc(cc1)C[C@H]1c3cc(c(OC)cc3CCN1C)Oc1c(OC)c(OC)cc3c1[C@H](C2)N(C)CC3 [tetrandrine]
inhibition at 10 µM (SARS-CoV-2 [3]; [8]): > 50%

Brusatol
EC50 (SARS-CoV-2 [1]; read-out: EC50): 49.2 nM

CB6: neutralizing human antibody CB6
protection against SARS-CoV-2 infection (SARS-CoV-2 [3]; […]): provided protection

IFN-α
protection against SARS-CoV-2 infection (SARS-CoV-2 [3]; […]): provided protection
